# Test results published in ChEMBL document CHEMBL6092156, “Design and development of a series of 4-(piperazin-1-yl)pyrimidines as irreversible menin inhibitors” (Eur J Med Chem, 2024).
# Tests used:
# MV4-11 [1] = test: Antiproliferative activity against human menin-sensitive MV4-11 cells assessed as inhibition of cell growth incubated for 7 days by MTS assay; assay type: functional, cell-based; conditions: MV4-11, 168 h
# REH = test: Antiproliferative activity against human menin-insensitive REH cells assessed as inhibition of cell growth incubated for 7 days by MTS assay; assay type: functional, cell-based; conditions: 168 h
# [2] = molecular target: Menin/Histone-lysine N-methyltransferase MLL (Homo sapiens, UniProt O00255); test: Inhibition of menin (unknown origin)/N-terminal FITC-labeled MLL1 peptide (unknown origin) interaction incubated for 30 min by fluorescence polarization assay; assay type: protein assay
# Sequence of Menin/Histone-lysine N-methyltransferase MLL (O00255 whole entry): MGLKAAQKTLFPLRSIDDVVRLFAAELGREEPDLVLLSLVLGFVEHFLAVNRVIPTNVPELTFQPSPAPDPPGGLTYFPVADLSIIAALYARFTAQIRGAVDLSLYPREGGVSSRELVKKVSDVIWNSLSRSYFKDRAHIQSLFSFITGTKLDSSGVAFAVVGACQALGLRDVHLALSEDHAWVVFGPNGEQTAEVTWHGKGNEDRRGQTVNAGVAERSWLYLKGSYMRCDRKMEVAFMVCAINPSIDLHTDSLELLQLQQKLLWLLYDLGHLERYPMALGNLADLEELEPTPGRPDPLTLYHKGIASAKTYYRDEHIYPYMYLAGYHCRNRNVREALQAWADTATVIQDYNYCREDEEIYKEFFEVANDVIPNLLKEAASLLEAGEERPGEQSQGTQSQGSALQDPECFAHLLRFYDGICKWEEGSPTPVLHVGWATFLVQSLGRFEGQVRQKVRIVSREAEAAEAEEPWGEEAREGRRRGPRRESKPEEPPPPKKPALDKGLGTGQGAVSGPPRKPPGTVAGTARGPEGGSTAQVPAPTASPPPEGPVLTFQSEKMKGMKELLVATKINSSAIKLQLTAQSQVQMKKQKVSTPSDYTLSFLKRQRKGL
# Sequence of Menin/Histone-lysine N-methyltransferase MLL (Q03164 1-2718 partner limits assumed): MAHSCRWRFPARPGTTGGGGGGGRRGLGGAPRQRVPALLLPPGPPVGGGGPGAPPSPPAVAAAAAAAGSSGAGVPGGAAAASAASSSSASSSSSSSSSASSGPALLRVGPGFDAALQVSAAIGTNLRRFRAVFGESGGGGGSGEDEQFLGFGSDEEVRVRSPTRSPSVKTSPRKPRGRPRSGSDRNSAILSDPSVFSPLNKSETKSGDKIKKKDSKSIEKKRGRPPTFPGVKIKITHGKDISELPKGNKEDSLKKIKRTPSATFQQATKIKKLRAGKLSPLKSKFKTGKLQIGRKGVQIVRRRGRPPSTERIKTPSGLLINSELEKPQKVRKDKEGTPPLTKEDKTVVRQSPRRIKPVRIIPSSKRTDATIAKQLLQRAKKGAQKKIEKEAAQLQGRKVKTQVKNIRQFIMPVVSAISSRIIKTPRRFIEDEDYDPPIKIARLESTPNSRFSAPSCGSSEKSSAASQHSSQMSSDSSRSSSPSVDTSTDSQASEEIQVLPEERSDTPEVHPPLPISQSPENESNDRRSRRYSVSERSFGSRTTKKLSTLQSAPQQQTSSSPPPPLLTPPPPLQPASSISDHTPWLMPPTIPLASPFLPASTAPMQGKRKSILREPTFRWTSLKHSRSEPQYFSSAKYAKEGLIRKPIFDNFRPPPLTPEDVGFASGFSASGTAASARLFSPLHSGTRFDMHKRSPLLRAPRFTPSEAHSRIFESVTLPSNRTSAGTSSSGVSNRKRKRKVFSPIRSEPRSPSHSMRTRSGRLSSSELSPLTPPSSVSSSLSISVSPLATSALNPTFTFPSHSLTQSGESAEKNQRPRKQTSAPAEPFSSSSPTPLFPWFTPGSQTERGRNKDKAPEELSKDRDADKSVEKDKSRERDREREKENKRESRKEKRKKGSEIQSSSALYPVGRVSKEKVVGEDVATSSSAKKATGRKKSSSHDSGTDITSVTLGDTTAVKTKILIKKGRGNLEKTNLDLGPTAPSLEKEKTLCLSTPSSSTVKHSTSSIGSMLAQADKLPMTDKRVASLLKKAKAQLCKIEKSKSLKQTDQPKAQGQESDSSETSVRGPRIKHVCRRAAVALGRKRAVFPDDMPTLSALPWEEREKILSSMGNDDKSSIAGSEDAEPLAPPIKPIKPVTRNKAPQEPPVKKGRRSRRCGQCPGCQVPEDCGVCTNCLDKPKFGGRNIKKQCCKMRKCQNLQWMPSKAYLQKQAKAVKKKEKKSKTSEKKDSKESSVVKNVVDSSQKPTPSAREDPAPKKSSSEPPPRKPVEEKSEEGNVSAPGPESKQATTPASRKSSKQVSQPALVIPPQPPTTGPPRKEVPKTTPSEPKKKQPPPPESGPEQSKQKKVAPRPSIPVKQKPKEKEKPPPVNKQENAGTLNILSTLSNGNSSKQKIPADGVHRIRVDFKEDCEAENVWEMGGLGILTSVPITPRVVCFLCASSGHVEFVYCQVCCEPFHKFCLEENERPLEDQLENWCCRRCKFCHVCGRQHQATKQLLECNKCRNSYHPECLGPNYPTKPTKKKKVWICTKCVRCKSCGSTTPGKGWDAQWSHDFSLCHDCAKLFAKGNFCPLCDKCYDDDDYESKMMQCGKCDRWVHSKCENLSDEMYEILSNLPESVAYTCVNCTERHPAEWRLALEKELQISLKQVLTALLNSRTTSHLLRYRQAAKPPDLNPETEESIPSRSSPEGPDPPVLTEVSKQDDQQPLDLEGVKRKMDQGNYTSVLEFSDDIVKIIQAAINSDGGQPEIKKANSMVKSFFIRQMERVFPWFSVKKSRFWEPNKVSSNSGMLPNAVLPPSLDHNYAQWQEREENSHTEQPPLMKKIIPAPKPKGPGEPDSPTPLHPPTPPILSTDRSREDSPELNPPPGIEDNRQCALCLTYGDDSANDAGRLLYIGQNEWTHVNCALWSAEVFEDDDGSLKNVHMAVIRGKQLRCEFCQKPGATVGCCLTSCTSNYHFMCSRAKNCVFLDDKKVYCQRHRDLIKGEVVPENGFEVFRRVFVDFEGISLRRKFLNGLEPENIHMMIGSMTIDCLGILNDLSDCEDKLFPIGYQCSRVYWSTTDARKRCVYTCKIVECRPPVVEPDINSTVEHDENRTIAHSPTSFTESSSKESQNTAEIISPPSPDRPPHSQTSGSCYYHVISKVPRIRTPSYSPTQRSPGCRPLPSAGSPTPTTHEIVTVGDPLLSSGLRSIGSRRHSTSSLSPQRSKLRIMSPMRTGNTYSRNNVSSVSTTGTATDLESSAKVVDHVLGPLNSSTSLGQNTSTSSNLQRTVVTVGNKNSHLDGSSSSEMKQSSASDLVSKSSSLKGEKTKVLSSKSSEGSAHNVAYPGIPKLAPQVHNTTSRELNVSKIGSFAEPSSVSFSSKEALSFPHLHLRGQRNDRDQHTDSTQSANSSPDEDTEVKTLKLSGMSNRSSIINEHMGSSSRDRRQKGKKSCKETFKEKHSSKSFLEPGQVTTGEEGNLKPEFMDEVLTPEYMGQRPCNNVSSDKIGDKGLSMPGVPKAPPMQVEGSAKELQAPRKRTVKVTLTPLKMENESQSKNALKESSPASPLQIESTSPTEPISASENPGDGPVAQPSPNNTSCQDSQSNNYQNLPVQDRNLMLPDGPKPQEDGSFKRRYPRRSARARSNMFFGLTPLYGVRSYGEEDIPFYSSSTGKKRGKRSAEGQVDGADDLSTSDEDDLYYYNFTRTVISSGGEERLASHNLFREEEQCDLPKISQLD
# Sequence of Menin/Histone-lysine N-methyltransferase MLL (Q03164 2719-3969 partner limits assumed): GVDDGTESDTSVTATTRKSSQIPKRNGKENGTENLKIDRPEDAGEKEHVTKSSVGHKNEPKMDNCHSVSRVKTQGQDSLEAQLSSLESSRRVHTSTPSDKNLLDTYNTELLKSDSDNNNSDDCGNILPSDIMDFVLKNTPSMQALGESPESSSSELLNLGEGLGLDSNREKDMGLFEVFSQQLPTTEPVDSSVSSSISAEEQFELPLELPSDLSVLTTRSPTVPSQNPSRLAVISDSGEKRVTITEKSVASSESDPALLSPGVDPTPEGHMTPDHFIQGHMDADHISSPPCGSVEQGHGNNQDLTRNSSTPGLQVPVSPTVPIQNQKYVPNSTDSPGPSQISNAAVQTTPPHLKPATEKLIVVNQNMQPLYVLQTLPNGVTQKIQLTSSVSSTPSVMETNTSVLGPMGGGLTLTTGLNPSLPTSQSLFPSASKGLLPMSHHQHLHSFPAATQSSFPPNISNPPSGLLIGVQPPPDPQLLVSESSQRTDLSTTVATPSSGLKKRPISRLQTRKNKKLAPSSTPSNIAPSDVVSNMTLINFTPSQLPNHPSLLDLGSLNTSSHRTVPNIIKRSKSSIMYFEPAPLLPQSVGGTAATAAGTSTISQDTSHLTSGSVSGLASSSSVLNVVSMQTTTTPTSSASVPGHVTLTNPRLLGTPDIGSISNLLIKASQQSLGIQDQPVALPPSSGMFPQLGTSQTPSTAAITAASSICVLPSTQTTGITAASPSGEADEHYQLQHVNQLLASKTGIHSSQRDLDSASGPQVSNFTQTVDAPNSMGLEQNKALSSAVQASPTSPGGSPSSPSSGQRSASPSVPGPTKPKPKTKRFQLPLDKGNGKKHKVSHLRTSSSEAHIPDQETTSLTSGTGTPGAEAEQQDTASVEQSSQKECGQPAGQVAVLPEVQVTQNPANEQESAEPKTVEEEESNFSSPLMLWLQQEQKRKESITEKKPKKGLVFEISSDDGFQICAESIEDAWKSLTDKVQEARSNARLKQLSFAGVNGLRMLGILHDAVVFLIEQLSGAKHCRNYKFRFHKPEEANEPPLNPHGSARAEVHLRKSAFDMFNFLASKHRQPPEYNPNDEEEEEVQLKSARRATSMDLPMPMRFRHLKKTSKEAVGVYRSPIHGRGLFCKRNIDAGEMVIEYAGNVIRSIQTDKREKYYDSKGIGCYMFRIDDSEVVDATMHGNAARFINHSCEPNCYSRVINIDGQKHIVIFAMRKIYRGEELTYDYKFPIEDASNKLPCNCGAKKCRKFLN
# [3] = Cytotoxicity against human PBMC cells assessed as cell viability incubated for 7 days by MTS assay; assay type: toxicity, cell-based
# MV4-11 [4] = test: Antiproliferative activity against human MV4-11 cells assessed as cell growth inhibition after 4 days; assay type: functional, cell-based; conditions: MV4-11, 96 h
# [5] = Suppression of MEN1 gene transcription in human MV4-11 cells assessed as protein synthesis by measuring fold change at 20 nM incubated for 16 hrs relative to control; assay type: functional
# [6] = Suppression of MEN1 gene transcription in human MV4-11 cells assessed as protein synthesis by measuring fold change at 50 ug/ml incubated for 24 hrs relative to control; assay type: functional; conditions: dose 50 µg/ml
# [7] = Suppression of MEN1 gene transcription in human MV4-11 cells assessed as protein synthesis by measuring fold change at 50 ug/ml incubated for 36 hrs relative to control; assay type: functional; conditions: dose 50 µg/ml
# [8] = Suppression of MEN1 gene transcription in human MV4-11 cells assessed as protein synthesis by measuring fold change at 50 ug/ml incubated for 48 hrs relative to control; assay type: functional; conditions: dose 50 µg/ml
# [9] = Suppression of MEN1 gene transcription in human MV4-11 cells assessed as protein synthesis by measuring fold change at 50 ug/ml incubated for 12 hrs relative to control; assay type: functional; conditions: dose 50 µg/ml
IC50 (MV4-11 [1]) [nM],IC50 [2] [nM],Structure (SMILES),IC50 (REH) [nM],further results
614,11.3,CCN(C(=O)c1cc(F)ccc1Nc1cncnc1N1CCN(CC2CN(c3ccc(S(=O)(=O)N4CC[C@@H](NC(=O)/C=C/CN(C)C)C4)cc3)C2)CC1)C(C)C,> 20000,–
283,22.9,C=CC(=O)NC1CN(S(=O)(=O)c2ccc(N3CC(CN4CCN(c5ncncc5Nc5ccc(F)cc5C(=O)N(CC)C(C)C)CC4)C3)cc2)C1,> 20000,–
30,14.2,CCN(C(=O)c1cc(F)ccc1Nc1cncnc1N1CCN(CC2CN(c3ccc(S(=O)(=O)C4CN(C(=O)/C=C/CN(C)C)C4)cc3)C2)CC1)C(C)C,1930,–
32,16.3,CCN(C(=O)c1cc(F)ccc1Nc1cncnc1N1CCN(CC2CN(c3ccc(S(=O)(=O)C4CN(C(=O)/C=C/CN5CCCC5)C4)cc3)C2)CC1)C(C)C,6980,–
1100,61.9,CCN(C(=O)c1cc(F)ccc1Nc1cncnc1N1CCN(CC2CN(c3ccc(NC(=O)/C=C/CN(C)C)cc3)C2)CC1)C(C)C,> 20000,–
–,276,CCN(C(=O)c1cc(F)ccc1Nc1cncnc1N1CCN(CC2CN(c3ccc(F)cc3)C2)CC1)C(C)C,–,–
–,66.5,CCN(C(=O)c1cc(F)ccc1Nc1cncnc1N1CCN(CC2CN(c3ccc(S(C)(=O)=O)cc3)C2)CC1)C(C)C,–,–
–,38.8,CCN(C(=O)c1cc(F)ccc1Nc1cncnc1N1CCN(CC2CN(c3ccc(C#N)cc3)C2)CC1)C(C)C,–,–
220,33.9,C=CC(=O)N1CC(S(=O)(=O)c2ccc(N3CC(CN4CCN(c5ncncc5Nc5ccc(F)cc5C(=O)N(C(C)C)C(C)C)CC4)C3)cc2)C1,4810,–
–,49.7,CCC(=O)c1ccc(N2CC(CN3CCN(c4ncncc4Nc4ccc(F)cc4C(=O)N(CC)C(C)C)CC3)C2)cc1,–,–
30,16.6,CCN(C(=O)c1cc(F)ccc1Nc1cncnc1N1CCN(CC2CN(c3ccc(S(=O)(=O)C4CN(C(=O)/C=C/CN5CCCCC5)C4)cc3)C2)CC1)C(C)C,7880,–
50,12.9,CCN(C(=O)c1cc(F)ccc1Nc1cncnc1N1CCN(C(=O)C2CN(c3ccc(S(=O)(=O)C4CN(C(=O)/C=C/CN(C)C)C4)cc3)C2)CC1)C(C)C,> 20000,–
2240,61.3,CCC(=O)N[C@H]1CCN(S(=O)(=O)c2ccc(N3CC(CN4CCN(c5ncncc5Nc5ccc(F)cc5C(=O)N(CC)C(C)C)CC4)C3)cc2)C1,> 20000,–
770,48.3,CCC(=O)Nc1ccc(N2CC(CN3CCN(c4ncncc4Nc4ccc(F)cc4C(=O)N(C(C)C)C(C)C)CC3)C2)cc1,8260,–
1470,52.2,CCC(=O)N[C@@H]1CCN(S(=O)(=O)c2ccc(N3CC(CN4CCN(c5ncncc5Nc5ccc(F)cc5C(=O)N(CC)C(C)C)CC4)C3)cc2)C1,> 20000,–
–,15.5,CCN(C(=O)c1cc(F)ccc1Oc1cncnc1N1CC2(CCN(C[C@H]3CC[C@H](NS(=O)(=O)CC)CC3)CC2)C1)C(C)C [REVUMENIB],–,IC50 at 7 days [3]: > 3000 nM
–,21.6,CCN(C(=O)c1cc(F)ccc1Nc1cncnc1N1CCN(CC2CN(c3ccc(S(N)(=O)=O)cc3)C2)CC1)C(C)C,–,–
281,12.3,CCN(C(=O)c1cc(F)ccc1Nc1cncnc1N1CCN(CC2CN(c3ccc(S(=O)(=O)N4CC(NC(=O)/C=C/CN(C)C)C4)cc3)C2)CC1)C(C)C,> 20000,–

IC50 (MV4-11 [1]) [nM],IC50 [2] [nM],Structure (SMILES),IC50 (REH) [nM],further results
–,27.3,CCN(C(=O)c1cc(F)ccc1Nc1cncnc1N1CCN(CC2CN(c3ccc(NS(C)(=O)=O)cc3)C2)CC1)C(C)C,–,–
–,186,CCN(C(=O)c1cc(F)ccc1Nc1cncnc1N1CCN(CC2CN(c3ccc(C(F)(F)F)cc3)C2)CC1)C(C)C,–,–
875,34.2,CCC(=O)NC1CN(S(=O)(=O)c2ccc(N3CC(CN4CCN(c5ncncc5Nc5ccc(F)cc5C(=O)N(CC)C(C)C)CC4)C3)cc2)C1,> 20000,–
210,32.8,CCC(=O)N1CC(S(=O)(=O)c2ccc(N3CC(CN4CCN(c5ncncc5Nc5ccc(F)cc5C(=O)N(C(C)C)C(C)C)CC4)C3)cc2)C1,> 20000,–
1510,95.6,CCC(=O)Nc1cccc(N2CC(CN3CCN(c4ncncc4Nc4ccc(F)cc4C(=O)N(C(C)C)C(C)C)CC3)C2)c1,> 20000,–
–,–,COC(=O)N[C@H]1CCC[C@@H]1[C@](C#N)(c1cccc(F)c1)C1CCN(CC2CN(c3ccc(S(=O)(=O)C4CN(C(=O)/C=C/CN(C)C)C4)cc3)C2)CC1,–,IC50 (MV4-11 [4]): 2.7 nM
140,18.4,CCN(C(=O)c1cc(F)ccc1Nc1cncnc1N1CCN(C(C)C2CN(c3ccc(S(=O)(=O)C4CN(C(=O)/C=C/CN(C)C)C4)cc3)C2)CC1)C(C)C (stereo not given),7900,–
1330,97.3,C=CC(=O)Nc1cccc(N2CC(CN3CCN(c4ncncc4Nc4ccc(F)cc4C(=O)N(C(C)C)C(C)C)CC3)C2)c1,4420,–
607,51.4,C=CC(=O)N[C@H]1CCN(S(=O)(=O)c2ccc(N3CC(CN4CCN(c5ncncc5Nc5ccc(F)cc5C(=O)N(CC)C(C)C)CC4)C3)cc2)C1,> 20000,–
–,50.2,CCN(C(=O)c1cc(F)ccc1Nc1cncnc1N1CCN(CC2CN(c3ccc([N+](=O)[O-])cc3)C2)CC1)C(C)C,–,–
1260,31.8,C=CC(=O)N[C@@H]1CCN(S(=O)(=O)c2ccc(N3CC(CN4CCN(c5ncncc5Nc5ccc(F)cc5C(=O)N(CC)C(C)C)CC4)C3)cc2)C1,> 20000,–
120,22.3,CCN(C(=O)c1cc(F)ccc1Nc1cncnc1N1C[C@@H](C)N(CC2CN(c3ccc(S(=O)(=O)C4CN(C(=O)/C=C/CN(C)C)C4)cc3)C2)C[C@@H]1C)C(C)C,18000,–
530,34,C=CC(=O)Nc1ccc(N2CC(CN3CCN(c4ncncc4Nc4ccc(F)cc4C(=O)N(C(C)C)C(C)C)CC3)C2)cc1,4280,–
644,16.7,CCN(C(=O)c1cc(F)ccc1Nc1cncnc1N1CCN(CC2CN(c3ccc(S(=O)(=O)N4CC[C@H](NC(=O)/C=C/CN(C)C)C4)cc3)C2)CC1)C(C)C,> 20000,–
–,–,CC(C)C[C@H](NC(=O)[C@H](CCc1ccccc1)NC(=O)CN1CCOCC1)C(=O)N[C@@H](Cc1ccccc1)C(=O)N[C@@H](CC(C)C)C(=O)[C@@]1(C)CO1 [CARFILZOMIB],–,fold change (FC) [5]: 1.16
40,14.5,CCN(C(=O)c1cc(F)ccc1Oc1cncnc1N1CCN(CC2CN(c3ccc(S(=O)(=O)C4CN(C(=O)/C=C/CN(C)C)C4)cc3)C2)CC1)C(C)C,11400,–
–,–,C[C@@H]1C[C@@H]([C@H](O)CC2CC(=O)NC(=O)C2)C(=O)[C@@H](C)C1 [CYCLOHEXIMIDE],–,fold change (FC) [6]: 0.41; fold change (FC) [7]: 0.007; fold change (FC) [8]: 0.007; fold change (FC) [9]: 0.55
